Test results reported in US20240081300A1, “ADRENERGIC MECHANISMS OF AUDIOGENIC SEIZURE-INDUCED DEATH IN MOUSE MODEL OF SCN8A ENCEPHALOPATHY” (University of Virginia Patent Foundation, priority 2021, published 2024).
Entries after “also recorded” stand apart in the source; their conditions may differ.

Assays:
[1] = system: P20-21 D/+ mice (Scn8a N1768D); experiment: Audiogenic seizure-induced death in P20-21 D/+ mice (adrenergic agonists, adrenergic blockade with mechanical ventilation); type: in vivo, mouse; details: for postictal breathing recovery (plethysmography): 3 mg/kg phenylephrine i.p. 1 minute prior
Experimental: (§1) Audiogenic seizure assessment. To test for audiogenic seizures mice were taken from their home cage and transferred to a clean test cage where they were allowed to acclimate for ˜20 seconds before the onset of the acoustic stimulus. Similar to a method described previously (Martin et al., 2020), a sonicator (Branson 200 ultrasonic cleaner) was used to produce the audiogenic stimulus directly adjacent to the test cage.
(§2) Audiogenic seizures were recorded using a laptop webcam. Duration of seizure phases were analyzed by taking the time in seconds that the mouse spent in each of the phases: a wild-running phase characterized by fast circular running throughout the cage, a tonic phase characterized by hindlimb extension and muscle rigidity, a clonic phase typified by myoclonic jerking of the hindlimbs, and recovery exemplified when the mouse ceased myoclonic jerking and righted itself. In cases where death occurred, the end of the tonic phase was apparent at the point of hindlimb muscle relaxation.
(§3) For recording of only breathing in pharmacological experiments, non-implanted mice were placed in the chambers immediately after injection of pharmacological agents. Stimulation of audiogenic seizures and recording of breathing were performed as described above.
Mechanical ventilation. For the mechanical ventilation of P20-21 D/+ mice during an audiogenic seizure, we quickly placed a custom-made 3 mL pipet which fit snuggly over the mouse's nose and mouth and provided regular pulses of air (˜1 mL at 2 Hz). The ventilation was terminated after the mouse initiated gasping behavior or 20 s after the animal experienced sudden death.
Adrenergic receptor pharmacology. All chemicals were purchased from Sigma Aldrich and were either of pharmaceutical grade or were sterile filtered prior to injection. Injections were given intraperitoneal in a volume of 50-100 ul sterile saline per […] of mouse weight (e.g. 0.1 mL for a […] adult mouse). […] Injection of 50-100 ul sterile saline per […] of mouse weight was used as control.

DBA1 mice = details: intracerebroventricular injection (Zhao et al., 2017); cited from earlier work
[2] = system: maximal electroshock seizures; details: intracerebroventricular injection (Kruse et al., 2019); cited from earlier work
[3] = system: adult D/+ mice (Scn8a N1768D); experiment: Audiogenic seizure survival in adult D/+ mice after adrenergic receptor inhibition; type: in vivo, mouse; details: 10 mg/kg sotalol i.p. 15 minutes prior to audiogenic seizure stimulation
Experimental: as §1, §2, §3
Mechanical ventilation. […]

Structure (SMILES): NC[C@H](O)c1ccc(O)c(O)c1 [NE, 4-[(1R)-2-amino-1-hydroxyethyl]benzene-1,2-diol]
- breathing recovery after tonic phase (plethysmography) ([1]; 2 mg/kg norepinephrine i.p. 1 minute prior): resulted in breathing recovery
- survival after audiogenic seizure (mice surviving of mice tested) ([1]; 2 mg/kg norepinephrine i.p. 1 minute prior to audiogenic seizure stimulation, saline 3 of 13, 2 mg/kg): 10 of 13 and significantly elevated rates of survival

Structure (SMILES): CNCC[C@@H](Oc1ccccc1C)c1ccccc1 [atomoxetine]
- prevention of death from audiogenic seizures (DBA1 mice): prevents death

Structure (SMILES): CNC[C@H](O)c1ccc(O)c(O)c1 [epinephrine]
- survival after audiogenic seizure (mice rescued of mice tested) ([1]; 2 mg/kg epinephrine i.p. 1 minute prior to audiogenic seizure stimulation, 2 mg/kg): one of the five; also recorded: did not seem to result in rescue

Structure (SMILES): CNC[C@H](O)c1cccc(O)c1 [phenylephrine, 3-[(1R)-1-hydroxy-2-(methylamino)ethyl]phenol]
- survival after audiogenic seizure (mice surviving of mice tested) ([1]; 3 mg/kg phenylephrine i.p. 1 minute prior to audiogenic seizure stimulation, 3 mg/kg): 7 out of 8 and rescued death
- survival after audiogenic seizure (mice surviving of mice tested) ([1]; 3 mg/kg phenylephrine i.p. 1 minute prior to audiogenic seizure stimulation, listed as PE, 3 mg/kg): significantly elevated rates of survival
- postictal breathing recovery (plethysmography) ([1]; 3 mg/kg): promoted postictal breathing recovery
- postictal breathing recovery (plethysmography) ([1]; listed as PE, 3 mg/kg): breathing also ceased during the tonic phase but recovered
- prevention of death from maximal electroshock seizures [2]: prevents death

Structure (SMILES): CC(C)NCC(O)c1ccc(NS(C)(=O)=O)cc1 (stereo not shown) [sotalol]
- survival after audiogenic seizure (mice surviving of mice tested) [3]: 12 out of 12 and had no affect on death rate
